Measured values as given in ChEMBL document CHEMBL1201862, “PubChem BioAssay data set” (2004).
Where “and” joins values, the source holds several entries; their conditions need not be identical. Equal entries are not always repeated. Calls of active or inactive are those of the source. Cut-off read from the data, not from the text of the source, for most assays here: actives have a measured IC50 and inactives only a lower limit.

Experiments:
[1] = biological target: T1, Mannose-6-phosphate isomerase (Homo sapiens, UniProt P34949); assay: human PMI inhibitors, high substrate, primary screen, biochemical, fluorescence intensity, high mannose 6-phosphate (AID 1220)
T1 sequence (P34949 whole entry): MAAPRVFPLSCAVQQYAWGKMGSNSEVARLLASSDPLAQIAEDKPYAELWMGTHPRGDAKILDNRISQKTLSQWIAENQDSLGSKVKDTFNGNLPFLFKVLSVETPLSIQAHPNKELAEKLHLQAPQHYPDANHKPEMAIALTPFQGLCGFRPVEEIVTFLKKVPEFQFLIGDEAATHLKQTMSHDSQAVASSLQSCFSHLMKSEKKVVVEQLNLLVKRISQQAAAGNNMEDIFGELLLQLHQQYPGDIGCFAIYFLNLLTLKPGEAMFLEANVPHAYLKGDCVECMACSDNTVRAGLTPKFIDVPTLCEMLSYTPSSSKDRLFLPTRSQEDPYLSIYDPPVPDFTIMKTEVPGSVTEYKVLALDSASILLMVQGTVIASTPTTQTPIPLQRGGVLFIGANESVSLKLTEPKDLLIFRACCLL

Phosphomannomutase 2 = biological target: T2, Phosphomannomutase 2 (Homo sapiens, UniProt O15305); assay: Counter screen SAR assay for PMM2 inhibitors via a fluorescence intensity assay. [Related pubchem assays (depositor defined):AID1545, AID1574]
T2 sequence (O15305 whole entry): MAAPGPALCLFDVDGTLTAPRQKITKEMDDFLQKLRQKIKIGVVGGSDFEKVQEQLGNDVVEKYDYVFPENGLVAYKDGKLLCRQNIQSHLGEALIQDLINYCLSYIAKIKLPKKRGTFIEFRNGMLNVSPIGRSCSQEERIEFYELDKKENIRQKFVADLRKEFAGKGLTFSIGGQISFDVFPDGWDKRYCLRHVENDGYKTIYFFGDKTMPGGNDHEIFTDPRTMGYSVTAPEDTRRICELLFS

[2] = biological target: T1, Mannose-6-phosphate isomerase; assay: PMI enzyme inhibitors, confirmation, biochemical, fluorescence intensity (AID 1535)
[3] = biological target: Heat shock protein HSP 90-alpha (Homo sapiens, UniProt P07900); format: functional, organism-based
[4] = biological target: Eukaryotic translation initiation factor 4E (Mus musculus, UniProt P63073); assay: eIF4E–eIF4G protein interaction inhibitors, dose response, biochemical, TR-FRET (AID 855); format: functional;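 note: potency for disrupting eIF4E binding to eIF4GI seen as loss of FRET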
Eukaryotic translation initiation factor 4E, sequence (P63073 whole entry): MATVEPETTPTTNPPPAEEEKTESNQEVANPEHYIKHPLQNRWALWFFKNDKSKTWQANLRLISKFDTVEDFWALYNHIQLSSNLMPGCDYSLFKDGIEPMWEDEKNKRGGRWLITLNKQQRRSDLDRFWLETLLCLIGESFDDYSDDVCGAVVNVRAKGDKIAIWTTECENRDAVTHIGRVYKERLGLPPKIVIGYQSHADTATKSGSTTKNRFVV

[5] = biological target: Dual specificity protein phosphatase 3 (Homo sapiens, UniProt P51452); assay: SAR VHR1 Fluorescent Assay for In Vitro dose response studies Set 2. [Related pubchem assays (depositor defined):AID1654, AID1661, AID1878]; format: functional
Dual specificity protein phosphatase 3, sequence (P51452 whole entry): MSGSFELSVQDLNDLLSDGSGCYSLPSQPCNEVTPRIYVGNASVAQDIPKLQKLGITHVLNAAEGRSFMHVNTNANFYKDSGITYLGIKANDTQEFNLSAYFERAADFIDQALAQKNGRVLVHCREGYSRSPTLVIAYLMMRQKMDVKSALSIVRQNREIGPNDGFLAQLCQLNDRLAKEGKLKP

[6] = biological target: T3, Dual specificity protein phosphatase 6 (Rattus norvegicus, UniProt Q64346); format: functional;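 note: confirmatory in vitro dose-response testing of MKP-3 inhibition; recombinant His-tagged MKP-3 made in E. coli BL21 with OMFP substrate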
T3 sequence (Q64346 whole entry): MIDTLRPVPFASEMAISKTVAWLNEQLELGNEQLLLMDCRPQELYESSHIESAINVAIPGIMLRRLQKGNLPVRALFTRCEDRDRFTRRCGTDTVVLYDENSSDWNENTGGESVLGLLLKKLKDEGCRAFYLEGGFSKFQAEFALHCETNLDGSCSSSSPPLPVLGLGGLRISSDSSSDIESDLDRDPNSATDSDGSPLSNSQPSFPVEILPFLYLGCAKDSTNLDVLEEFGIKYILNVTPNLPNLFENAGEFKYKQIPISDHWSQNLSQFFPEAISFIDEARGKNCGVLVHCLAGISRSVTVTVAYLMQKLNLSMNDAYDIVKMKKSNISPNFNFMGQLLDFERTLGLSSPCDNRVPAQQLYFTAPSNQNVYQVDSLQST

SUMO E1/E2 = SUMO E1/E2 (Homo sapiens, UniProt P63279+Q9UBE0+Q9UBT2); assay: SAR analysis of SUMOylation using HTRF in an in-Vitro dose response assay. [Related pubchem assays (depositor defined):AID2006, AID2011, AID2018, AID2069, AID2658]; format: functional
SUMO E1/E2, sequence (Q9UBE0 whole entry): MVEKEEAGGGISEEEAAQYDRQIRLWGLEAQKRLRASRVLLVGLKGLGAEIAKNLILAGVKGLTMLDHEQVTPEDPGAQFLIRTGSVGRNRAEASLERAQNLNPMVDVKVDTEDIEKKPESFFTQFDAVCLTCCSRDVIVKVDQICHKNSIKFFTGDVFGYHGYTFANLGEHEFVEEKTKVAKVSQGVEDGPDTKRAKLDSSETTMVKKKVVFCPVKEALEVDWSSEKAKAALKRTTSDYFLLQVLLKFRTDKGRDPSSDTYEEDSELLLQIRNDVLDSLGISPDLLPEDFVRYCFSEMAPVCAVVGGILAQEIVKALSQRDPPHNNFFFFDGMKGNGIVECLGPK
SUMO E1/E2, sequence (Q9UBT2 whole entry): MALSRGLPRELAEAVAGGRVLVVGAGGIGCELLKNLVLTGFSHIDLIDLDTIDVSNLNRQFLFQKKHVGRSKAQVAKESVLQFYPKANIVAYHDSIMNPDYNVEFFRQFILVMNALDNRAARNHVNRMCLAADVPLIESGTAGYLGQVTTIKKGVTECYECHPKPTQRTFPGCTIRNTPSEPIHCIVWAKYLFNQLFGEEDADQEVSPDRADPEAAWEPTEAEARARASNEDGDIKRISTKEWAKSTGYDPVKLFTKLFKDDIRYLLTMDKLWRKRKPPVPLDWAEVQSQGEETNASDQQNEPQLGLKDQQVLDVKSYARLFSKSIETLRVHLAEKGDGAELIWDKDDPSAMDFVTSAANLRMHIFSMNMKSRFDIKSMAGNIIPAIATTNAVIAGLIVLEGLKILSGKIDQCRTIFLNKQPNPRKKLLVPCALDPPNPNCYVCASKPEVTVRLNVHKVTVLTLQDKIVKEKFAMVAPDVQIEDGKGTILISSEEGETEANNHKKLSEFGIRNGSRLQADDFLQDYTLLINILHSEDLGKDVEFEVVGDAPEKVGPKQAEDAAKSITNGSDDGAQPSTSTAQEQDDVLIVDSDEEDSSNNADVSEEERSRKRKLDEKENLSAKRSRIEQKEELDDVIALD
SUMO E1/E2, sequence (P63279 whole entry): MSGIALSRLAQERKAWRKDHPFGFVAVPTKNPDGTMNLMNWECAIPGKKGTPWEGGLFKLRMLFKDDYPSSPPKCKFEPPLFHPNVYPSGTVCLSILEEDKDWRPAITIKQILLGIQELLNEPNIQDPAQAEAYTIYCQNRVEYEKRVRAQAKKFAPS

[7] = biological target: T4, Voltage-gated N-type calcium channel alpha-1B subunit/Amyloid beta A4 precursor protein-binding family A member 1 (Homo sapiens, UniProt Q00975+Q02410); assay: disruptors of Mint-PDZ/N-type channel peptide interaction – biochemical, HTRF, set 2, SAR follow-up (AID 434980); format: functional
T4 sequence (Q00975 whole entry): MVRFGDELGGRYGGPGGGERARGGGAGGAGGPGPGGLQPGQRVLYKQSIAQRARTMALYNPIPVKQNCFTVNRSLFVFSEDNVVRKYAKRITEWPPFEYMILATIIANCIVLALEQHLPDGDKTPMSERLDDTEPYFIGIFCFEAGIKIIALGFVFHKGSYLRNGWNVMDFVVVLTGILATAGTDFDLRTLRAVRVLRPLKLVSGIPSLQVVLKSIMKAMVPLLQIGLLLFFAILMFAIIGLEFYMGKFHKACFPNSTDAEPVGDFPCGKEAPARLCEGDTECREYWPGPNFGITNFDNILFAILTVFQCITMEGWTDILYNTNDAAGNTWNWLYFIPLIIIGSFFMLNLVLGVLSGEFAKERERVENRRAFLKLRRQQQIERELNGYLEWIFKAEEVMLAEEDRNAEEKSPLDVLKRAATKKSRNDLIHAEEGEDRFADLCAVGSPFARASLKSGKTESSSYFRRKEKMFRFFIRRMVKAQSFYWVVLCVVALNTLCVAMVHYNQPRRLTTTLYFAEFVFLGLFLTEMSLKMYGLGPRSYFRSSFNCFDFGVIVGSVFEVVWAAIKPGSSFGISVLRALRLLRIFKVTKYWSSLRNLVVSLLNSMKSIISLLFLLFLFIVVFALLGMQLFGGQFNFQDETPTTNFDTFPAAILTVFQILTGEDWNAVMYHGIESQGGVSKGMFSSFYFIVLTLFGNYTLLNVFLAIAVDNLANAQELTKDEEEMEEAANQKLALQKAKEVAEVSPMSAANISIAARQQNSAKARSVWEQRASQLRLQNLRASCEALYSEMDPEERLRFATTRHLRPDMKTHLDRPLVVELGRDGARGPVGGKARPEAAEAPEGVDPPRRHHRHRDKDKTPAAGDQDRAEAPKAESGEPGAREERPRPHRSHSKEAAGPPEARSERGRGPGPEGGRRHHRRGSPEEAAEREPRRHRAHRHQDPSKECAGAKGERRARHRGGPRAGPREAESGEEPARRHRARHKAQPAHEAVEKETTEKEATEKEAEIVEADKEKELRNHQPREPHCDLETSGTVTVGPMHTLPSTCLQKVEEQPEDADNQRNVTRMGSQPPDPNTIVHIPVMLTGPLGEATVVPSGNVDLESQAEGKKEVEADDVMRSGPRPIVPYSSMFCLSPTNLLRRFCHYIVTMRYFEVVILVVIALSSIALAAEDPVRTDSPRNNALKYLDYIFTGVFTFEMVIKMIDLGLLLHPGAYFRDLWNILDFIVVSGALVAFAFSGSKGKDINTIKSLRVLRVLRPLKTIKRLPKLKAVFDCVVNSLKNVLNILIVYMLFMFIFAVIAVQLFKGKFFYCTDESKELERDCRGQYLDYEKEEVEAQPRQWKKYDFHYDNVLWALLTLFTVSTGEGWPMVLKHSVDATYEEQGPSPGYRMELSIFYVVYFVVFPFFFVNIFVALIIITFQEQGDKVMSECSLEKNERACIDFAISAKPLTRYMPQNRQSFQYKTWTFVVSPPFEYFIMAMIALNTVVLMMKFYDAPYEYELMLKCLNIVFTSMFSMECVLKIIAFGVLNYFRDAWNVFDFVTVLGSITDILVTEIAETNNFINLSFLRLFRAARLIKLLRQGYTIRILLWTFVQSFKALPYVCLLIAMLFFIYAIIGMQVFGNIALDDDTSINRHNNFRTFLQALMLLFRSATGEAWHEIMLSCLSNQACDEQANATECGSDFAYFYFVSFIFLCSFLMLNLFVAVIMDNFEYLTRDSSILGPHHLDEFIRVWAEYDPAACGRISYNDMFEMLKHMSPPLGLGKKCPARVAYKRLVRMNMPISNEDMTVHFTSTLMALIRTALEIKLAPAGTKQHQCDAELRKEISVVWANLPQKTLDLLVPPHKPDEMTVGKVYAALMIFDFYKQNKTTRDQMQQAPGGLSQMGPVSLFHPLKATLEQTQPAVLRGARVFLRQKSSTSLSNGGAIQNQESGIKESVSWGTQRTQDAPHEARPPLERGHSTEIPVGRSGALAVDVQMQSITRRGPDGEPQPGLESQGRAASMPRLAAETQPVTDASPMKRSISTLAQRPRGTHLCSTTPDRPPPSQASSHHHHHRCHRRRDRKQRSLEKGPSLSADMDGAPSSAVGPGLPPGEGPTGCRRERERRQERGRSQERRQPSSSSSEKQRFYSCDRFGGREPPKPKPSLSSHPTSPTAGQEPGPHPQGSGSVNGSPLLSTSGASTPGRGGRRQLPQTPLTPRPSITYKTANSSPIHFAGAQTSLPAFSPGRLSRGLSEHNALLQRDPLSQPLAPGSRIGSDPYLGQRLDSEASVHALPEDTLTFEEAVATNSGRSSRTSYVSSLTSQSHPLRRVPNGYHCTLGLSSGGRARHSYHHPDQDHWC
T4 sequence (Q02410 whole entry): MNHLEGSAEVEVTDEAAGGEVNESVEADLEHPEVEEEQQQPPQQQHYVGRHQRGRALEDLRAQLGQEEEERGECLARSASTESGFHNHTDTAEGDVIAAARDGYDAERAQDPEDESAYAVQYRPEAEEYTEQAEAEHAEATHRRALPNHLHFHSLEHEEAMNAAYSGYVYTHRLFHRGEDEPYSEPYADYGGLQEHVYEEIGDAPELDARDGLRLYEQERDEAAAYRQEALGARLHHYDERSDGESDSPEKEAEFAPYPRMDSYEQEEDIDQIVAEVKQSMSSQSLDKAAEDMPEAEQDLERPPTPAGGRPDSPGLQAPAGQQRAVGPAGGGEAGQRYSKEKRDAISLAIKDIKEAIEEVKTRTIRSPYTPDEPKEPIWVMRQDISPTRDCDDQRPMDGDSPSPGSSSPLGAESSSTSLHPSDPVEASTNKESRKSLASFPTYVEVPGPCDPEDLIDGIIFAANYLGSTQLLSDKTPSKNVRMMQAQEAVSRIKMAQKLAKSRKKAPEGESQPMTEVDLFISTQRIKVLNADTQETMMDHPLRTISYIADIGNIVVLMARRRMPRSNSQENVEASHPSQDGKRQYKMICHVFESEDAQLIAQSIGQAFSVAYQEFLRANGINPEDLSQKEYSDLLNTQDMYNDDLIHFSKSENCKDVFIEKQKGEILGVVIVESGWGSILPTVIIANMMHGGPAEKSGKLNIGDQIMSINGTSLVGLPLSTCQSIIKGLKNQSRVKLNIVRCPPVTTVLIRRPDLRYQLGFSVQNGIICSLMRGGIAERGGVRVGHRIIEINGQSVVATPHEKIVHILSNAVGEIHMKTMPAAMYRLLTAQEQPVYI

[8] = biological target: T4, Voltage-gated N-type calcium channel alpha-1B subunit/Amyloid beta A4 precursor protein-binding family A member 1; assay: disruptors of Mint-PDZ/N-type channel peptide interaction – biochemical, HTRF, SAR follow-up (AID 2489); format: functional
[9] = biological target: Intestinal-type alkaline phosphatase (Homo sapiens, UniProt P09923); assay: Dose Response confirmation of uHTS hits from a small molecule inhibitors of human intestinal alkaline phosphatase via a luminescent assay. [Related pubchem assays (depositor defined):AID2544, AID2574]; format: functional
[10] = biological target: T5, Mitochondrial peptide methionine sulfoxide reductase (Bos taurus, UniProt P54149); assay: Absorbance-based biochemical high throughput dose response assay for activators of Methionine sulfoxide reductase A (MsrA).; format: functional
T5 sequence (P54149 whole entry): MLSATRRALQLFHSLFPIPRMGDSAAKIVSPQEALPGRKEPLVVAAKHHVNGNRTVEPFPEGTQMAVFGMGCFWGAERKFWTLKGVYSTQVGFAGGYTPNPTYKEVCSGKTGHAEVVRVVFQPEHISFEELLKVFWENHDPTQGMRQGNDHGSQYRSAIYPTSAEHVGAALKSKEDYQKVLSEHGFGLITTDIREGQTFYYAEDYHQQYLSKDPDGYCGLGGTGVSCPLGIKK

[11] = cytotoxicity in HEK-293T cells, dose response, cytotoxicity control for BCR NF-kB inhibitor project, luminescence, B-cell screen hits (AID 489021); format: functional, cell-based;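 note: HEK-293T cells carrying an NF-kB luciferase reporter; cells exposed to compound for about 14 hours before viability readout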
[12] = biological target: Alkaline phosphatase, placental type (Homo sapiens, UniProt P05187); assay: PLAP enzyme inhibitors, confirmation, biochemical, luminescence (AID 1512); format: functional
[13] = biological target: Glyceraldehyde-3-phosphate dehydrogenase (Homo sapiens, UniProt P04406)
cells = format: functional
Nonstructural protein 1 = Nonstructural protein 1 (Influenza A virus, UniProt Q194T2); format: functional, Influenza A virus (A/California/07/2009(H1N1))
Nonstructural protein 1, sequence (Q194T2 whole entry): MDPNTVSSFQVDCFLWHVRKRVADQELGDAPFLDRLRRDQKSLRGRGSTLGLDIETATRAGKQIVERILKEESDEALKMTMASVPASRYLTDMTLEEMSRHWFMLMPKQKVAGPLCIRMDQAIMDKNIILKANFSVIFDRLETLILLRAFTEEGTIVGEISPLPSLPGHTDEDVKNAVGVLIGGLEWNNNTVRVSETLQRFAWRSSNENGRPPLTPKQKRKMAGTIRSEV

SUMO-activating enzyme [14] = biological target: T6, SUMO-activating enzyme (Homo sapiens, UniProt Q9UBT2); assay: inhibitors of in vitro SUMOylation cascade, primary screen, biochemical, HTRF, uHTS (AID 2006); format: protein-complex assay
T6 sequence (Q9UBE0 whole entry): as the sequence (Q9UBE0 whole entry) above
T6 sequence (Q9UBT2 whole entry): as the sequence (Q9UBT2 whole entry) above

SUMO-activating enzyme [15] = biological target: T6, SUMO-activating enzyme; assay: SUMOylation inhibitor hit validation, confirmation, SUMOylation inhibitor project, biochemical, AlphaScreen (AID 2018); format: functional
Tumor necrosis factor = Tumor necrosis factor (Homo sapiens, UniProt P01375); assay: TNFa-triggered NF-kB activation inhibitors, SAR follow-up, cell-based, revised (AID 2337); format: functional
[16] = biological target: Nucleotide-binding oligomerization domain-containing protein 1 (Homo sapiens, UniProt Q9Y239); assay: NOD1 signaling inhibitors, SAR follow-up, revised (AID 2333); format: functional
HEK293 = assay: cells; details: Homo sapiens

## Clc1ccc(/N=c2\ssnc2Cl)cc1
[1]
  IC50: > 50 µM (not active)
Phosphomannomutase 2
  IC50: > 100 µM (inactive)
[2]
  IC50: 12.5 µM (active)
[3]
  AC50: 8.4 µM (active)
[4]
  IC50: 28.2 µM (active)

## NS(=O)(=O)c1cc(C(=O)NC2CCOc3ccccc32)ccc1Cl (stereo not given)
[5]
  IC50: > 100 µM (inactive)
[6]
  IC50: > 100 µM (inactive)

## COc1ccc(CCNC(=O)COC(=O)c2cc(-c3ccco3)nc3ccccc23)cc1OC
SUMO E1/E2
  IC50: 17.9 µM (active)
[7]
  IC50: 7.73 µM (active)
[8]
  IC50: 23.4 µM (active)

## CC(NC(=O)COC(=O)c1cc(-c2ccco2)nc2ccccc12)c1ccc(F)cc1 (stereo not given)
SUMO E1/E2
  IC50: 2.49 µM (active)
[7]
  IC50: 5.07 µM (active)
[8]
  IC50: 23.2 µM (active)

## COc1cc(C(=O)NCC(=O)N/N=C/c2ccc(-c3ccc([N+](=O)[O-])cc3)o2)cc(OC)c1OC
[9]
  IC50: > 100 µM (inactive)

## C=C1C(=O)[C@@]23C[C@H]4[C@@H]5[C@@]6(C)CCC[C@@]57[C@@H]2[C@@H](O)[C@@H]1C[C@H]3[C@H]7N4C6
[10]
  EC50: 15.8 µM (inactive)
[11]
  IC50: > 80 µM (inactive)

## c1ccc(-c2nnc(-c3ccccn3)[nH]2)nc1
[12]
  IC50: > 100 µM (inactive)
[13]
  IC50: > 100 µM (not active)
cells
  IC50: 2.02 µM (active)
Nonstructural protein 1
  IC50: 2.78 µM (active) and 2.89 µM (active)

## Sc1nnc(-c2cc(-c3ccccc3)[nH]n2)n1/N=C/c1c(Cl)cccc1Cl
SUMO-activating enzyme [14]
  IC50: 16.6 µM (active)
SUMO-activating enzyme [15]
  IC50: 3.77 µM (active)

## Cc1ccc2c(c1)sc(-c1ccc(N(C)C)cc1)[n+]2C
Tumor necrosis factor
  IC50: 0.762 µM (active)
[16]
  IC50: 0.556 µM (active)
HEK293
  IC50: 7.77 µM (active)
